# According to EP0259782A1, “Naphthalene and indane derivatives, medicaments containing these compounds and processes for their preparation” (Dr. Karl Thomae GmbH, priority 1986, dated 1988):
# How the values were obtained:
# Herzfrequenz an Ratten = assay: Effect on heart rate in anaesthetised rats; format: in vivo; conditions: rats anaesthetised with pentobarbital; dose 5,0 mg/kg injected into the Vena jugularis; 5 minutes after application; control heart rate 350-400 S/min; 2 rats per dose
# Protocol: Wirkung auf die Herzfrequenz an Ratten: Die Wirkung der zu untersuchenden Substanzen auf die Herzfrequenz wurde pro Dosis an 2 Ratten mit einem durchschnittlichen Gewicht von 250-300 g untersucht. Hierzu wurden die Ratten mit Pentobarbital (50 mg/kg i.p. und 10 mg/kg s.c.) narkotisiert. Die zu untersuchenden Substanzen […]ösung in die Vena jugularis injiziert (0,1 ml/100 g). Der Blutdruck wurde über in eine A. carotis eingebundene Kanüle gemessen und die Herzfrequenz wurde aus einem mit Nadelelektroden abgeleiteten EKG (II. oder III. Ableitung) registriert. Die Herzfrequenz der […] 350 und 400 Schlägen/Minuten (S/min).
# Mäusen = conditions: in vivo, iv, 10 mg/kg
# Text: Die erfindungsgemäß hergestellten Verbindungen weisen in therapeutischen Dosen keinerlei toxische Nebenwirkungen auf.
SMILES,"Herzfrequenzsenkung, gemessen 5 Minuten nach Substanzapplikation (Herzfrequenz an Ratten)",toxische Nebenwirkungen (Mäusen)
"COc1ccc(CCN(C)CCCC2CCc3cc(OC)c(OC)cc3C2=O)cc1OC (centres unmarked) [Substanz A, 6,7-Dimethoxy-2-[3-((2-(3,4-dimethoxyphenyl)-ethyl)-methylamino)-propyl]-1-oxo-1,2,3,4-tetrahydro-naphthalin]",157 S/min,außer einer geringen Sedation keine toxischen Nebenwirkungen
"COc1ccc(CCN(C)CCCC2CCc3cc(OC)c(OC)cc3C2)cc1OC.Cl (centres unmarked) [Substanz B, 6,7-Dimethoxy-2-[3-((2-(3,4-dimethoxyphenyl)-ethyl)-methylamino)-propyl]-1,2,3,4-tetrahydro-naphthalin-hydrochlorid]",150 S/min,
"COc1ccc(CCN(C)CCCC2Cc3cc(OC)c(OC)cc3C2O)cc1OC (centres unmarked) [Substanz C, 5,6-Dimethoxy-2-[3-((2-(3,4-dimethoxyphenyl)-ethyl)-methylamino)-propyl]-1-hydroxy-indan]",152 S/min,außer einer geringen Sedation keine toxischen Nebenwirkungen
